Assay results from patent publication US5750515A, “Cancer metastasis inhibitor” (Taiho Pharmaceutical Co., Ltd., priority 1995, dated 1998).

Legend:
[1] = system: 4-1ST (human stomach cancer); assay: Tumor growth inhibitory effect (4-1ST subcutaneous solid tumor in nude mice); assay type: in vivo, human cells in SPF BALB/c-nu/nu male mice; details: tumor weight at 3 weeks vs non-treated
Protocol: (§1) Each of 4-1ST (human stomach cancer) and LC-6 (human lung cancer) cell lines grown subcutaneously as solid tumors in mice, were cut into rectangular pieces measuring 2 mm×2 mm×2 mm and were then transplanted subcutaneously into the right backs of SPF BALB/c-nu/nu male mice (7 week old) by use of a needle for transplantation. Using the equation shown below, the estimated volume of tumor was determined. When the estimated volume of tumor became 100-250 mm^3, the mice were allocated. To the grouped mice were administered various doses of Am 555S, 5-fluorouracil (5-FU) and Cisplatin (CDDP). […] More specifically, Am 555S was orally administered for three terms, each term consisting of five consecutive administration days and two non-administration days, 5-FU was administered intravenously through the tail vein for consecutive five days, and CDDP was administered once intravenously through the tail vein. After three weeks from the administration commencement, the mice were killed and the tumor growth inhibition rates were determined from the rate of tumor weights to that of the non-treated group, so as to determine the effect of growth inhibition of the tumor.

[2] = system: TMK-1 (human stomach cancer); assay: Experimental liver metastasis (TMK-1 human stomach cancer transplanted into the spleen of nude mice), increased life span; assay type: in vivo, human cells in SPF BALB/c-nu/nu male mice
Protocol: (§2) The effect of cancer metastasis inhibition was measured using the compounds Re 80, Am 55S and Am 555S.
(§3) KM12L4 (human colon cancer), TMK-1 (human stomach cancer) and A549 (human lung cancer) were each transplanted into the spleen of SPF BALB/c-nu/nu male mice (7 week old) in an amount of 1×10^6 cells/mouse. This test was conducted using experimental liver metastasis models.
(§4) The test procedure followed the modified Morikawa et al method (Cancer Research, 48, 1943-1948, (1988)). That is, the in vitro cultured cells were collected using 0.25% trypsin--0.02% EDTA or 0.02% EDTA and were then washed with physiological phosphate buffer saline. After the number of the cells was counted, the cells were diluted to 10^6 cells/50 μl. Next, each mouse was incised at their left abdomen after being anesthetized with 30 mg/kg of Nembutal and then the spleen was exposed. With a 28 gauge needle attached syringe, 50 μl of the above-prepared suspension containing 1×10^6 cells/50 μl was injected into the spleen. After two minutes, two portions of blood vessels of the spleen were ligated using a Liga clip and the spleen was removed. The incision site was then closed using a kyapher suture. Each of the compounds Re 80, Am 55S and Am 555S, which is an active ingredient of the cancer metastasis inhibitor of the invention, was suspended in 5% ethanol/olive oil or in 0.5% carboxymethyl cellulose/0.5% Tween 80 (Registered Trademark, produced by Nacalai tesque Co.) and was orally administered to each mouse from next day of the transplantation. In each case, the administration was conducted for three terms, each term consisting of five consecutive administration days and two non-administration days. Evaluation was conducted using the increased life span (ILS) in comparison to the control solvent group as an evaluation index. The ILS of all-trans-retinoic acid (ATRA), known to have cancer metastasis inhibiting properties, was also measured with the same test procedure.

[3] = system: genes considered to be related to cancer metastasis and infiltration; details: as reported in the background art; concentration dependent manner; cited from earlier work
A549 (human lung cancer) = assay: Experimental liver metastasis (A549 human lung cancer transplanted into the spleen of nude mice), increased life span; assay type: in vivo, human cells in SPF BALB/c-nu/nu male mice
Protocol: as §2, §3, §4

[4] = Toxicity test, oral, 3 weeks; assay type: in vivo, SPF ICR male mice; details: consecutive 3 weeks, 6 mice
Protocol: SPF ICR male mice (5 week old) were used as divided into groups each consisting of 6 mice. To the group to be administered with the compound Re 80, the group to be administered with the compound Am 55S and the group to be administered with the compound Am 555S were orally administered 2 mg/kg of the compound Re 80 per day, 640 mg/kg of the compound Am 55S per day and 16 mg/kg of the compound Am 555S per day for consecutive 3 weeks, respectively.

[5] = system: KM12L4 (human colon cancer); assay: Experimental liver metastasis (KM12L4 human colon cancer transplanted into the spleen of nude mice), increased life span; assay type: in vivo, human cells in SPF BALB/c-nu/nu male mice
Protocol: as §2, §3, §4

[6] = system: experimental liver metastasis models (KM12L4, TMK-1, A549); assay: Effect on the experimental liver metastasis, overall (KM12L4, TMK-1 and A549 models); assay type: in vivo, human cells in SPF BALB/c-nu/nu male mice; details: for maximum ILS as compared with all-trans-retinoic acid (ATRA) / advantage over all-trans-retinoic acid (ATRA) in ILS: comparison with ATRA, in words; for inhibition of cancer metastasis: conclusion in words; for survival time of the mouse: conclusion in words from Table 1; for maximum value of the ILS as compared with the control group: maximum over cell lines and doses of Table 1
Protocol: as §2, §3, §4

[7] = system: 4-1ST (human stomach cancer) and LC-6 (human lung cancer); assay: Tumor growth inhibitory effect, overall (4-1ST and LC-6); assay type: in vivo, human cells in SPF BALB/c-nu/nu male mice
Protocol: as §1

LC-6 (human lung cancer) = assay: Tumor growth inhibitory effect (LC-6 subcutaneous solid tumor in nude mice); assay type: in vivo, human cells in SPF BALB/c-nu/nu male mice; details: tumor weight at 3 weeks vs non-treated
Protocol: as §1

[8] = 2 mg/kg oral, 3 terms of 5 days on/2 off
[9] = 8 mg/kg oral, 3 terms of 5 days on/2 off

SMILES: O=c1[nH]cc(F)c(=O)[nH]1 [5-FU, 5-fluorouracil, reference compound]
- Tumor Growth Inhibition Rate ([1]; 19 mg/kg i.v. (tail vein), consecutive five days): 50.9

SMILES: CC1=C(/C=C/C(C)=C/C=C/C(C)=C/C(=O)O)C(C)(C)CCC1 [ATRA, all-trans-retinoic acid, reference compound]
- Increased life span (ILS %) ([2]; TMK-1, 8 mg/kg, same test procedure, vs control solvent group): 22%
- expression of genes related to cancer metastasis and infiltration [3]: can prevent the expression of these genes to interdict metastasis and infiltration of cancer cells in concentration dependent manner

SMILES: C[Si](C)(C)c1cc(NC(=O)c2ccc(C(=O)O)cc2)cc([Si](C)(C)C)c1 [Am 55S, 4-[3,5-bis(trimethylsilyl)phenylcarbamoyl] benzoic acid]
- Increased life span (ILS %) ([2]; po, 100 mg/kg, 120 h): 39%
- Increased life span (ILS %) ([2]; po, 300 mg/kg, 120 h): 30%
- Increased life span (ILS %) (A549 (human lung cancer); po, 100 mg/kg, 120 h): 37%
- Increased life span (ILS %) (A549 (human lung cancer); po, 300 mg/kg, 120 h): 6%
- death ([4]; 640 mg/kg per day oral): No death occurred
- notable side effect ([4]; 640 mg/kg per day oral): no notable side effect occurred
- Increased life span (ILS %) ([5]; po, 100 mg/kg, 120 h): 14%
- Increased life span (ILS %) ([5]; po, 300 mg/kg, 120 h): 42%
- maximum ILS as compared with all-trans-retinoic acid (ATRA) [6]: higher
- inhibition of cancer metastasis [6]: effective to inhibit cancer metastasis
- survival time of the mouse [6]: remarkably prolonged
- maximum value of the ILS as compared with the control group [6]: 42%

SMILES: C[Si](C)(C)c1cc(C(=O)Nc2ccc(C(=O)O)cc2)cc([Si](C)(C)C)c1 [Am 555S, 4-[3,5-bis(trimethylsilyl)phenylcarboxamide] benzoic acid]
- Increased life span (ILS %) ([2]; TMK-1, 4 mg/kg oral, 3 terms of 5 days on/2 off, vs control solvent group): 59%
- Increased life span (ILS %) ([2]; TMK-1, 16 mg/kg oral, 3 terms of 5 days on/2 off, vs control solvent group): 71%
- Increased life span (ILS %) (A549 (human lung cancer); A549, 4 mg/kg oral, 3 terms of 5 days on/2 off, vs control solvent group): 57%
- Increased life span (ILS %) (A549 (human lung cancer); A549, 16 mg/kg oral, 3 terms of 5 days on/2 off, vs control solvent group): 30%
- tumor growth inhibition rates as compared with 5-FU and CDDP ([7]; comparison in words from Table 2): extremely low tumor growth inhibition rates
- tumor growth inhibition activity ([7]; conclusion in words from Table 2): no tumor growth inhibition activity
- death ([4]; 16 mg/kg per day oral): No death occurred
- notable side effect ([4]; 16 mg/kg per day oral): no notable side effect occurred
- Increased life span (ILS %) ([5]; KM12L4, 4 mg/kg oral, 3 terms of 5 days on/2 off, vs control solvent group): 5%
- Increased life span (ILS %) ([5]; KM12L4, 16 mg/kg oral, 3 terms of 5 days on/2 off, vs control solvent group): 22%
- Tumor Growth Inhibition Rate [1, 8]: 2.7
- Tumor Growth Inhibition Rate ([1]; 4 mg/kg oral, 3 terms of 5 days on/2 off): -4.9
- Tumor Growth Inhibition Rate [1, 9]: 8.7
- Tumor Growth Inhibition Rate (LC-6 (human lung cancer); [8]): 2.7
- Tumor Growth Inhibition Rate (LC-6 (human lung cancer); [9]): 13.7
- advantage over all-trans-retinoic acid (ATRA) in ILS [6]: marked advantages
- maximum ILS as compared with all-trans-retinoic acid (ATRA) [6]: higher
- inhibition of cancer metastasis [6]: effective to inhibit cancer metastasis
- survival time of the mouse [6]: remarkably prolonged
- maximum value of the ILS as compared with the control group [6]: 71%

SMILES: [NH2][Pt]([NH2])([Cl])[Cl] [CDDP, Cisplatin, reference compound]
- Tumor Growth Inhibition Rate (LC-6 (human lung cancer); 7 mg/kg i.v. (tail vein), once): 52.3

SMILES: CC1(C)CCC(C)(C)c2cc(C(=O)C=C(O)c3ccc(C(=O)O)cc3)c(O)cc21 [Re 80, 4-[1-hydroxy-3-oxo-3-(5,6,7,8-tetrahydro-5,5,8,8-tetramethyl-3-hydroxy-2-naphthalenyl)-1-propenyl] benzoic acid]
- Increased life span (ILS %) ([2]; po, 0.5 mg/kg, 120 h): 36%
- Increased life span (ILS %) ([2]; po, 2 mg/kg, 120 h): 50%
- Increased life span (ILS %) (A549 (human lung cancer); po, 0.5 mg/kg, 120 h): 19%
- Increased life span (ILS %) (A549 (human lung cancer); po, 2 mg/kg, 120 h): 22%
- death ([4]; 2 mg/kg per day oral): No death occurred
- notable side effect ([4]; 2 mg/kg per day oral): no notable side effect occurred
- Increased life span (ILS %) ([5]; po, 0.5 mg/kg, 120 h): 23%
- Increased life span (ILS %) ([5]; po, 2 mg/kg, 120 h): 34%
- advantage over all-trans-retinoic acid (ATRA) in ILS [6]: marked advantages
- maximum ILS as compared with all-trans-retinoic acid (ATRA) [6]: higher
- inhibition of cancer metastasis [6]: effective to inhibit cancer metastasis
- survival time of the mouse [6]: remarkably prolonged
- maximum value of the ILS as compared with the control group [6]: 50%
